≈ marks a conversion by molar mass, not a printed value. Counter-ions that a name gives are not always drawn.
Assays:
[1] = biological target: T1, bovine liver β-glucuronidase (Bos taurus, UniProt A3KMY8); experiment: Enzymatic hydrolysis of prodrugs by bovine liver β-glucuronidase in MOPS buffer; type: biochemical; conditions: 10 units/mL bovine liver enzyme, FIG. 1A
T1 construct: bovine liver β-glucuronidase (Sigma type B-10) (10.2 units/mg of protein); purchased Sigma type B-10; host or cells: bovine liver
T1 sequence (A3KMY8 1-652): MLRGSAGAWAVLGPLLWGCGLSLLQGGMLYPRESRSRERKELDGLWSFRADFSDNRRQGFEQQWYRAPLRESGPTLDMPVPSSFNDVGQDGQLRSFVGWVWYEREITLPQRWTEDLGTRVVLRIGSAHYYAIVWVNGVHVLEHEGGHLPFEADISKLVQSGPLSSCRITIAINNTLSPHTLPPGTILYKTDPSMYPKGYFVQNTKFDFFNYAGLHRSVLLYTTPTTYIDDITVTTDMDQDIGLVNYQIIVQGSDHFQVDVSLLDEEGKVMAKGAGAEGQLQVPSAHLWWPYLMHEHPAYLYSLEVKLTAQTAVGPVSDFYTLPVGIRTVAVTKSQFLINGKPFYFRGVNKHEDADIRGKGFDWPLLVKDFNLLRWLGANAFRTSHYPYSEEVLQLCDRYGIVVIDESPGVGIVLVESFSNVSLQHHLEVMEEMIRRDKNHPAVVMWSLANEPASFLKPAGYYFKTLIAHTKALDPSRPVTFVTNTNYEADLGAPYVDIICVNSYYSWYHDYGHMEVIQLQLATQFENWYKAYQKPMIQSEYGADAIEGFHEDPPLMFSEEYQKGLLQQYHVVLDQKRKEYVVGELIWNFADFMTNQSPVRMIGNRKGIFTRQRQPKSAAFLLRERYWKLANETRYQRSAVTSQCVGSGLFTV
Experimental: (§1) The enzymatic hydrolysis of the prodrugs was investigated with both E. coli and bovine liver β-glucuronidase in MOPS buffer at pH 7.0. Prodrugs and p-nitrobenzyl alcohol (HPLC internal standard) were dissolved in the MOPS buffer (pH 7.0) at 37° C. Enzymatic cleavage was initiated by adding 0.2 Fishman units of E. coli β-glucuronidase (Sigma type IX-A) (42.8 units/mg of protein) or 10 Fishman units of bovine liver β-glucuronidase (Sigma type B-10) (10.2 units/mg of protein) to the incubation buffer. Aliquots (100 μL) of the reaction mixture were withdrawn at various times and were mixed with 100 μL of acetonitrile/0.1 M TEAA (6:4) to quench the enzymatic reaction. Prodrug and product concentrations were determined by HPLC. For determination of enzyme kinetic parameters, prodrug solutions at concentrations between 5 and 300 μM were incubated with a fixed amount of enzyme. Aliquots were withdrawn at time intervals varying from 1 to 20 min and the reactions were quenched as described above. Initial reaction velocities were determined at each substrate concentration. Non-linear regression methods were used to determine KM and Vmax values. Data were processed with Prism 3.0 software.

[2] = Stability (first-order hydrolysis) of prodrugs in aqueous buffers at 37° C., HPLC; type: physicochemical; conditions: for Observed first order rate constant for hydrolysis, kTris: 50 mM Tris-HCl (pH 7.5), 5 mM dithiothreitol, 0.1 mM EDTA; for Observed first order rate constant for hydrolysis, kTris / Observed first order rate constant for hydrolysis, kMOPS / Observed first order rate constant for hydrolysis, kDulbecco: 37° C.; for Observed first order rate constant for hydrolysis, kMOPS: 50 mM morpholinopropane sulfonic acid, pH 7.0, 0.01% NaCl; for Observed first order rate constant for hydrolysis, kPBS: Phosphate buffered saline, pH 7.2, 37° C.; for Observed first order rate constant for hydrolysis, kDulbecco: modified Dulbecco's medium
Experimental: Prodrug purity of the prodrugs was determined by HPLC on a Hewlett-Packard LC 1090 Series II system equipped with a Phenomenex 250×4 mm column (5 μm particle size) eluted isocratically at 1 mL/min with acetonitrile/0.1 M triethylammonium acetate (TEAA), pH 7.0, (3:7). Aliquots (100 μL) from prodrug solutions were withdrawn and diluted with 100 μL of a solution of p-nitrobenzyl alcohol (an internal standard) in acetonitrile/0.1 M TEAA (6:4). UV detection was at 254 and 280 nm. Retention times for 1, 2, O^6-benzylguanine, O^6-benzyl-2′-deoxyguanosine and p-nitrobenzyl alcohol were 5.20, 4.97, 7.13, 7.18 and 8.64 min, respectively. All determinations were carried out in duplicate or triplicate.
The stability of the prodrugs was determined in phosphate buffered saline (pH 7.2) (Life Techologie, Inc), a Tris buffer containing 50 mM Tris-HCl (pH 7.5) (Life Technologies, Inc), 5 mM dithiothreitol and 0.1 mM EDTA, a MOPS buffer (pH 7.0) containing 50 mM morpholinopropane sulfonic acid, […] Dulbecco's medium prepared by combining 400 mL of Dulbecco's medium with 7 mL of 7.5% NanCO3, 4 mL of 15 mM glutamine, 2 mL gentamicin and 40 mL of fetal calf serum. Solutions were incubated at 37° C. and prodrug concentrations were analyzed by HPLC at various times as indicated above.
Rate constants for the first-order disappearance of prodrugs were estimated from semi-log plots of the concentration of prodrug as a function of time. The spontaneous rate of liberation, for example, in aqueous solutions, of the AGT inactivator is much lower than the rate for β-glucuronidase catalyzed liberation, for example, about 10 times less, and preferably 100 times less. The spontaneous rate of liberation of the AGT inactivator from the prodrug is low, e.g., about 0.2 to about 0.5% by weight per hour.

E. coli β-glucuronidase = biological target: T2, E. coli β-glucuronidase (Escherichia coli, UniProt P05804); experiment: Enzymatic hydrolysis of prodrugs by E. coli β-glucuronidase in MOPS buffer; type: biochemical; conditions: 0.2 unit/mL E. coli enzyme, FIG. 1B
T2 construct: purchased Sigma type IX-A
Experimental: as §1

[3] = biological target: T3, human O^6-alkylguanine-DNA alkyltransferase (Homo sapiens, UniProt P16455); experiment: Inactivation of purified recombinant human alkyltransferase (AGT) in vitro, [3H]-methylated DNA substrate; type: biochemical; conditions: for IC50: absence of β-glucuronidase, 30 min at 37° C., FIG. 2, read-out: inactivation of human AGT: concentration up to which inactive; for alkyltransferase inactivation in the presence of bovine liver β-glucuronidase: incubation with bovine liver β-glucuronidase (20 or 200 units/mL) for 30 min, FIG. 2A/2B
T3 sequence (P16455 1-207): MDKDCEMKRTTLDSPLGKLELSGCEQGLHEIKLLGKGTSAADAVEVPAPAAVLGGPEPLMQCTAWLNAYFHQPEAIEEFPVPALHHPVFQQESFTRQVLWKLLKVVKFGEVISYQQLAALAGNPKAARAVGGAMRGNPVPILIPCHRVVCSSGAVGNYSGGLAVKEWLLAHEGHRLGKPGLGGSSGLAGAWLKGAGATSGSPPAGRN
Experimental: Purified recombinant human alkyltransferase was incubated with different concentrations of prodrugs in 0.5 mL of reaction buffer (50 mM Tris-HCl, pH 7.6, 0.1 mM EDTA, 5.0 mM dithiothreitol) containing 50 μg of hemocyanin for 30 min at 37° C. For experiments involving β-glucuronidase, the bovine liver protein, prodrugs and alkyltransferase were incubated together in the above hemocyanin-containing buffer for 30 min at 37° C. The remaining alkyltransferase activity was determined after incubation with a [^3H]-methylated calf thymus DNA substrate for 30 min at 37° C. by measuring the [^3H]-methylated methylated protein formed, which was collected on nitrocellulose filters. The results were expressed as the percentage of the alkyltransferase activity remaining.

HT29 cells = experiment: HT29 cell killing by BCNU after drug pretreatment, colony-forming assay; type: cell-based; conditions: for HT29 cell killing by BCNU after prodrug without β-glucuronidase: 5 hr prodrug, no β-glucuronidase, then two-hour 40 μM BCNU; for HT29 cell killing by BCNU after prodrug without β-glucuronidase / HT29 cell killing by BCNU after prodrug with β-glucuronidase: FIG. 3; for HT29 cell killing by BCNU after prodrug with β-glucuronidase: bovine liver β-glucuronidase 20 units/mL of medium, 7 or 14 hr (1), 14 hr (2), then 2 hr 40 μM BCNU
Experimental: HT29 cells were grown in RPMI 1640 medium in the presence of 10% fetal bovine serum. The effect of alkyltransferase inactivators on the sensitivity of cells to BCNU was determined using a colony-forming assay. Cells were plated at a density of 10^6 in 25 cm^2 flasks and 24 h later were incubated with different concentrations of prodrugs for the time indicated before exposure to 40 μM BCNU for 2 hr. For experiments involving β-glucuronidase, the bovine liver protein was added to the cell cultures at 20 units/mL of medium and incubated along with the prodrug. BCNU was dissolved in absolute ethanol at a concentration of 8 mM. It was diluted with the same volume of ice-cold phosphate-buffered saline, and was immediately administered to cells. After two hr, the medium was replaced with fresh medium and the cells were left to grow for an additional 16-18 h. The cells were then replated at densities of 250 cells per 25 cm^2 flask and grown for 8 days until discrete colonies had formed. The colonies were washed with 0.9% saline solution, stained with 0.5% crystal violet in ethanol, and counted. The plating efficiency of cells not treated with drugs was about 50%.

Solubility in water = type: physicochemical; conditions: for solubility: water
[4] = Stability under acidic conditions; type: physicochemical

T2 sequence (P05804 whole entry): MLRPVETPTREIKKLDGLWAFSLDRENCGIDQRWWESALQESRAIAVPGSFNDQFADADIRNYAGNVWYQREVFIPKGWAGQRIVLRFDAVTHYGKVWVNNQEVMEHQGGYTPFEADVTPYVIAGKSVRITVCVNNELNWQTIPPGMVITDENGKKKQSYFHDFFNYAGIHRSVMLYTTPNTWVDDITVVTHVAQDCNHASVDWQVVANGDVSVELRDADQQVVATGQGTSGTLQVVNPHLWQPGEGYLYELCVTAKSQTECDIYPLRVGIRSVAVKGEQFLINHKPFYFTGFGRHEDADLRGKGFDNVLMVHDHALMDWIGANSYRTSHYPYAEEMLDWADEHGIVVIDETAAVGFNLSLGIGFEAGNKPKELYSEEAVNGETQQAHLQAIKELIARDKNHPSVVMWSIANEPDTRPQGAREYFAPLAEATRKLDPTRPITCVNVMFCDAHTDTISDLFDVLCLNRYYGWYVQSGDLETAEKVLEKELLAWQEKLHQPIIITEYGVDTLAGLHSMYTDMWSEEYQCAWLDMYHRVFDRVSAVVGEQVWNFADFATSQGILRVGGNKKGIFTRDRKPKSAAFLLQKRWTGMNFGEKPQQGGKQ

SMILES | hydrolysis by the bovine liver enzyme (prodrug disappearance) [1] | Observed first order rate constant for hydrolysis, kTris [2] [min⁻¹] | Observed first order rate constant for hydrolysis, kMOPS [2] [min⁻¹] | Observed first order rate constant for hydrolysis, kPBS [2] [min⁻¹] | Observed first order rate constant for hydrolysis, kDulbecco [2] [s⁻¹] | hydrolysis by the E. coli enzyme (prodrug disappearance) (E. coli β-glucuronidase) | IC50 [3] [µM] | alkyltransferase inactivation in the presence of bovine liver β-glucuronidase [3] | HT29 cell killing by BCNU after prodrug without β-glucuronidase (HT29 cells) | HT29 cell killing by BCNU after prodrug with β-glucuronidase (HT29 cells) | average half-time for decomposition ([2]; aqueous buffers of Table 1) [days] | fold more water soluble than O^6-benzylguanine (Solubility in water; relative to O^6-benzylguanine) | solubility (Solubility in water) [mg/mL] | ED90 for HT29 cell killing by 40 μM BCNU following a 2-hr incubation with drug (HT29 cells) | stability under acidic conditions compared with O^6-benzylguanine [4]
O=C(Nc1nc(OCc2ccccc2)c2ncn([C@H]3C[C@H](O)[C@@H](CO)O3)c2n1)OCc1ccc(O[C@@H]2O[C@H](C(=O)O)[C@@H](O)[C@H](O)[C@H]2O)c([N+](=O)[O-])c1 [Prodrug 2, O^6-Benzyl-N^2-[[[[4″-[(β-D-glucopyranuronosyl)oxy]-3″-nitrophenyl]methyl]oxy]carbonyl]-2′-deoxyguanosine, monosodium salt] | rapid disappearance | 1.55e-07 | 1.88e-07 | 6.46e-07 | 7.8e-09 | rapid disappearance | > 50 | efficient alkyltransferase inactivation | quite resistant to killing | much greater cell killing by BCNU |  |  |  |  | 
O=C(Nc1nc(OCc2ccccc2)c2nc[nH]c2n1)OCc1ccc(O[C@@H]2O[C@H](C(=O)O)[C@@H](O)[C@H](O)[C@H]2O)c([N+](=O)[O-])c1 [Prodrug 1, O^6-Benzyl-N-[[[[4′-[(-β-D-glucopyranuronosyl)oxy]-3′-nitrophenyl]methyl]oxy]carbonyl]guanine, monosodium salt] | rapid disappearance | 4.06e-06 | 3.77e-06 | 3.86e-06 | 7.15e-08 | rapid disappearance | > 50 | efficient alkyltransferase inactivation | quite resistant to killing | greatly sensitized to killing by BCNU | ~100 |  |  |  | 
NCc1cccc(COc2nc(N)nc3nc[nH]c23)c1 [Compound 25, O^6-(3-Aminomethylbenzyl)guanine] |  |  |  |  |  |  |  |  |  |  |  | at least 700 × | > 100 | 1.75 µM | far more stable
Nc1nc(OCc2ccccc2)c2nc[nH]c2n1 [O^6-benzylguanine, reference compound] |  |  |  |  |  |  |  |  |  |  |  |  | 0.1 (≈ 0.415 mM) | 0.75 µM | 
NCc1ccc(COc2nc(N)nc3[nH]cnc23)cc1 [Compound 24, O^6-(4-Aminomethylbenzyl)guanine] |  |  |  |  |  |  |  |  |  |  |  |  | > 100 | >>5 μM | 

— patent US7825096B2, “O6-alkylguanine-DNA alkyltransferase inactivators and beta-glucuronidase cleavable prodrugs” (The United States of America as represented by the …, priority 2004, dated 2010)
